Data from patent publication US12209144B2, “Cyclic peptides as proprotein convertase subtilisin/kexin type 9 (PCSK9) inhibitors for the treatment of metabolic disorders” (Novartis AG, priority 2018, dated 2025).
Bridge positions count the residues as written; N and C are the ends. Square brackets hold non-standard residues; d marks the D form. Peptide text beside a SMILES is read from it. Bip = N[C@@H](Cc1ccc(-c2ccccc2)cc1)C(=O)O; Phe(4-Cl) = N[C@@H](Cc1ccc(Cl)cc1)C(=O)O; NMeE = CN[C@@H](CCC(=O)O)C(=O)O; NMeA = CN[C@@H](C)C(=O)O

What follows are molecules tested against human PCSK9 (Homo sapiens, UniProt Q8NBP7) (assay: PCSK9 ligand binding assay (TR-FRET): interference with binding of human PCSK9 to human LDLR). Details: PCSK9 FRET assay, efficacy (Amax); 0% = DMSO, 100% = 1 uM unlabeled human PCSK9.
Chain of human PCSK9 (Q8NBP7 153-692): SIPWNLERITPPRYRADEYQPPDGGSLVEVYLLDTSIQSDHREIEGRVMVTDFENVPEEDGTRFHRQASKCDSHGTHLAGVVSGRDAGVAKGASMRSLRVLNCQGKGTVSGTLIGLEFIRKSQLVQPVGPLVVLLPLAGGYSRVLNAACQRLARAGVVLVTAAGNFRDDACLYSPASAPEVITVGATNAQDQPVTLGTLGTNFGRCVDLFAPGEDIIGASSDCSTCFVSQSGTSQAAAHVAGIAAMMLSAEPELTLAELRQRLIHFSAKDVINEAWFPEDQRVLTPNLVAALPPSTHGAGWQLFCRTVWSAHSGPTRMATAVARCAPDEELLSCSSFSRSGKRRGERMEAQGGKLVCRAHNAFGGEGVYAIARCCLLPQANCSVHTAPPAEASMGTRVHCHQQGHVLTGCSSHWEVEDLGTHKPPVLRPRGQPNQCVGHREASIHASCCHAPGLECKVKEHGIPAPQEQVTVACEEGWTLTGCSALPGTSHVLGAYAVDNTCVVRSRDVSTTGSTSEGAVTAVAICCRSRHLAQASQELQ
Chain of human PCSK9 (Q8NBP7 31-152 partner limits assumed): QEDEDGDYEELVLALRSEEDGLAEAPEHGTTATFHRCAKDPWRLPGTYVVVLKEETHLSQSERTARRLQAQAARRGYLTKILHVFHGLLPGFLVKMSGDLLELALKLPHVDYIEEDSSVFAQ
For `CC(C)[C@@H]1NC(=O)[C@H]([C@@H](C)O)NC(=O)[C@H]([C@@H](C)O)NC(=O)[C@@H]2CCCN2C(=O)[C@H](C(C)C)NC(=O)[C@H](Cc2ccccc2)NC(=O)CSC[C@@H](C(N)=O)NC(=O)[C@@H]2CCCN2C(=O)[C@H](C)NC(=O)[C@H](CCC(=O)O)NC(=O)[C@H](C)N(C)C(=O)[C@H](Cc2ccc(Cl)cc2)NC(=O)[C@H](C)N(C)C1=O` [Example 2-6, Ac*-F-V-P-T-T-V-(N-Me)A-(p-Cl)F-(N-Me)A-E-A-P-C*-NH2] ({CH2CO}-FVPTTV[NMeA][Phe(4-Cl)][NMeA]EAPC-NH2; thioether N-13), the Maximum % inhibition was 83%.
Work on `CCNC(=O)[C@@H]1CSCC(=O)N[C@@H](Cc2ccccc2)C(=O)N[C@@H](C(C)C)C(=O)N[C@@H](CC(N)=O)C(=O)N[C@@H]([C@@H](C)O)C(=O)N[C@@H]([C@@H](C)O)C(=O)N[C@@H](Cc2ccccc2)C(=O)N(C)[C@@H](C)C(=O)N[C@@H](Cc2ccc(-c3ccccc3)cc2)C(=O)N(C)[C@@H](C)C(=O)N(C)[C@@H](CCC(=O)O)C(=O)N[C@@H](C)C(=O)N2CCC[C@H]2C(=O)N1` [Example 3-1, 3-((3R,9S,12S,15S,18S,21S,24S,27S,30S,33S,36S,39S,44aS)-30-([1,1′-biphenyl]-4-ylmethyl)-15-(2-amino-2-oxoethyl)-9,24-dibenzyl-3-(ethylcarbamoyl)-18,21-bis((R)-1-hydroxyethyl)-12-isopropyl-26,27,32,33,35,39-hexamethyl-1,7,10,13,16,19,22,25,28,31,34,37,40-tridecaoxodotetracontahydro-6H-pyrrolo[2,1-f][1]thia[4,7,10,13,16,19,22,25,28,31,34,37,40]tridecaazacyclodotetracontin-36-yl)propanoic acid] ({CH2CO}-FVNTTF[NMeA][Bip][NMeA][NMeE]APC-NHEt; thioether N-13) yielded a Maximum % inhibition of 61%.
Molecule `CCNC(=O)[C@@H]1CSCC(=O)N[C@@H](Cc2ccccc2)C(=O)N[C@@H](C(C)C)C(=O)N2CCC[C@H]2C(=O)N[C@@H]([C@@H](C)O)C(=O)N[C@@H]([C@@H](C)O)C(=O)N[C@@H](Cc2ccccc2)C(=O)N(C)[C@@H](C)C(=O)N[C@@H](Cc2ccc(-c3ccccc3)cc2)C(=O)N(C)[C@@H](C)C(=O)N[C@@H](CCC(=O)O)C(=O)N[C@@H](C)C(=O)N2CCC[C@H]2C(=O)N1` [Example 3-2, Ac*-F-V-P-T-T-F-(N-Me)A-B-(N-Me)A-E-A-P-C*-NHEt] ({CH2CO}-FVPTTF[NMeA][Bip][NMeA]EAPC-NHEt; thioether N-13) has a Maximum % inhibition of 83%.
`CCNC(=O)[C@@H]1CSCC(=O)N[C@@H](Cc2ccccc2)C(=O)N[C@@H](C(C)C)C(=O)N2CCC[C@H]2C(=O)N[C@@H]([C@@H](C)O)C(=O)N[C@@H]([C@@H](C)O)C(=O)N[C@@H](Cc2ccc(-c3ccccc3)cc2)C(=O)N(C)[C@@H](C)C(=O)N[C@@H](Cc2ccc(-c3ccccc3)cc2)C(=O)N(C)[C@@H](C)C(=O)N[C@@H](CCC(=O)O)C(=O)N[C@@H](C)C(=O)N2CCC[C@H]2C(=O)N1` [Example 3-3, Ac*-F-V-P-T-T-B-(N-Me)A-B-(N-Me)A-E-A-P-C*-NHEt] was tested, and the Maximum % inhibition was 87%.
Work on `CCNC(=O)[C@@H]1CSCC(=O)N[C@@H](Cc2ccccc2)C(=O)N[C@@H](C(C)C)C(=O)N2CCC[C@H]2C(=O)N[C@@H]([C@@H](C)O)C(=O)N[C@@H]([C@@H](C)O)C(=O)N[C@@H](Cc2ccc(-c3ccccc3)cc2)C(=O)N(C)[C@@H](C)C(=O)N[C@@H](Cc2ccc(-c3ccccc3)cc2)C(=O)N(C)[C@@H](C)C(=O)N[C@@H](C)C(=O)N[C@@H](C)C(=O)N2CCC[C@H]2C(=O)N1` [Example 3-4, Ac*-F-V-P-T-T-B-(N-Me)A-B-(N-Me)A-A-A-P-C*-NHEt] ({CH2CO}-FVPTT[Bip][NMeA][Bip][NMeA]AAPC-NHEt; thioether N-13) yielded a Maximum % inhibition of 49%.
